Assay: Stability test of the crystal form (high temperature, high humidity, strong light irradiation; X-ray powder diffraction and HPLC content)
Assay type: physicochemical
Settings: high temperature (60° C.), high humidity (90%), strong light irradiation (4500 Lx); day 0 vs day 10
Experimental: Test conditions of X-ray powder diffraction: instrument: D/MAX-1200 (Rigaku, Japan); radiation source: Cu-Kα (40 kV, 40 mA).
Test conditions of stability: high temperature (60° C.), high humidity (90%) and strong light irradiation (4500 Lx) tests are performed according to the Chinese Pharmacopoeia 2010 edition, Part II, Appendix XIX C.
Test conditions of HPLC: instrument: Dionex UltiMate3000; column: Shim-pack VP-ODS 5 μm 250 L×4.6; detector: VWD-3100, detection wavelength: 256 nm; mobile phase: methanol-water-glacial acetic acid (30:70:0.4); flow rate: 1.0 mL/min, column temperature: 30° C.
High temperature (60° C.), high humidity (90%) and strong light irradiation (4500 Lx) tests of the non-solvated crystal A of example 1, non-solvated crystal B of example 2, and non-solvated crystal C of example 3 were performed according to the Chinese Pharmacopoeia 2010 edition, Part II, Appendix XIX C. Samples on day 0 and day 10 respectively were taken to determine the X-ray powder diffraction pattern and content (HPLC method).

content (HPLC method) after stability test: does not change significantly
Structure (SMILES): COc1ccc2c(Oc3ccc4c(C(=O)Nc5ccccc5N)cccc4c3)ccnc2c1 [non-solvated crystal A, N-(2-aminophenyl)-6-(7-methoxyquinoline-4-oxo)-1-naphthaleneformamide]
crystal form (X-ray powder diffraction pattern) after stability test: remain unchanged in their original crystal forms
